Data taken from patent US12428377B2, “Sodium-hydrogen exchanger 3 inhibitor compounds” (Eli Lilly and Company, priority 2019, dated 2025).

How the values were obtained:
SGLT1 = biological target: T1, SGLT1 (Homo sapiens, UniProt P13866); assay: SGLT1 inhibition (selectivity)
T1 sequence (P13866 1-664): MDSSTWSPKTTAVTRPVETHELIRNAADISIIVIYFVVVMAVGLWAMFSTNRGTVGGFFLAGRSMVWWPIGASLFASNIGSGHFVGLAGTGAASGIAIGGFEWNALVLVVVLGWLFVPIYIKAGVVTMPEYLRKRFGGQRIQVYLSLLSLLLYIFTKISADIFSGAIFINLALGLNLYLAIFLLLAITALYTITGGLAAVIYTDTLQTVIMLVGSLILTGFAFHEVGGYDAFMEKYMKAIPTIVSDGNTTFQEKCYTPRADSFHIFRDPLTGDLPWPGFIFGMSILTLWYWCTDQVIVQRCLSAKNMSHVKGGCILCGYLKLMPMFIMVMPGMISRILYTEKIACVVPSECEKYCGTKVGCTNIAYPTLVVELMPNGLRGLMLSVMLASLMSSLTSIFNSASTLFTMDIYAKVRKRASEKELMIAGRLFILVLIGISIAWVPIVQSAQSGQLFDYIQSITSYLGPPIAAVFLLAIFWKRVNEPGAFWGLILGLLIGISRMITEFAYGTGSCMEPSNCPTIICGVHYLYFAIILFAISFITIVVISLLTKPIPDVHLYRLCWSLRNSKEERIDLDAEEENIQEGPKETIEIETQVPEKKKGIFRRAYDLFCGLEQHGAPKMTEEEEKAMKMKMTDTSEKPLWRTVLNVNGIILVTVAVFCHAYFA

male Sprague Dawley rats [1] = assay: Phosphate absorption 15 min after radiolabeled phosphate (Example 2, Compound A, combination); assay type: in vivo, rat; settings: Example 2 0.4 mg/kg, plasma 15 min after radiolabeled phosphate, P=0.046 versus vehicle control
Experimental: Effect of Example 2 in Combination with an NPT2b Inhibitor (Compound A) on Phosphate Absorption and Intestinal Phosphate Retention in Rats
The purpose of this study is to investigate in rats the effect of Example 2, Compound A, and an Example 2/Compound A combination on phosphate absorption 15 min after dosing the compounds and the phosphate retained in the intestine 4.25 h after dosing the compounds. The latter is a measure of the oral phosphate load which is absorbed over an extended period.
Two vehicles are used in this study: 1) 1% HEC and 2) 0.46% poly-1-vinylpyrrolidone-co-vinyl acetate in water (PVP-VA vehicle). The vehicle control group in this study receives a 1:1 combination of the two vehicles.
The Example 2, Compound A and phosphate dosing solutions are prepared similarly as described above, except the doses are 0.4 mg/kg for Example 2 and 10 mg/kg for Compound A and they are prepared at a concentration where they would be dosed in a 5 mL/kg volume. […]
Male Sprague Dawley rats are fasted 4 h and then administered appropriate vehicles, 10 mg/kg Compound A, 0.4 mg/kg Example 2, or a combination of both compounds. […] Radioactivity in plasma is measured by scintillation counting and used to calculate the inhibition of phosphate absorption. […] Statistical significance is determined by ANOVA with a Dunnett's comparison to the Example 2/Compound A combination using JMP 12.1.

male Sprague Dawley rats [2] = assay: Radiolabeled phosphate absorption in rats, Studies 1-3 (plasma radioactivity); assay type: in vivo, rat; settings: Study 2, rats; for Absorption (vs. vehicle control): mean ± SEM
Experimental: Effect of Example 2 in Combination with an NPT2b Inhibitor (Compound A) on Phosphate Absorption in Rats
NPT2b inhibitor dosing solutions: Compound A and poly-1-vinylpyrrolidone-co-vinyl acetate (PVP-VA, Sigma-Aldrich) are weighed into a bottle at a ratio of 30% Compound A and 70% PVP-VA by weight. A clear yellow solution is prepared by diluting the mixture in MeOH followed by the addition of 2 mol NaOH per mol Compound A using 5 N NaOH. The solution is spray dried by a stream of hot nitrogen and the solid dispersion powder is collected and then further dried in a vacuum oven. Doses for the sprayed dried solid dispersion (SDD) are expressed as active pharmaceutical ingredient (API) throughout.
To make the Compound A dosing solution, an appropriate amount of Compound A SDD is weighed in a vial and dissolved in water (10 mL/kg dosing volume). […] The subsequent solutions for lower doses are prepared by serial dilutions with water. PVP-VA at 7 mg/mL is used as a vehicle control.
NHE3 inhibitor dosing solutions: To make the Example 2 dosing solution, an appropriate amount of the compound is weighed in a vial and dissolved in 1% HEC (10 mL/kg dosing volume). […] The subsequent solutions for lower doses are prepared by serial dilutions with HEC.
To make the radiolabeled phosphate dosing solution, a 16.25 mM Na2HPO4, 0.9% saline, pH 7.4 solution is prepared and filtered using a sterile, 0.22 μm, polyethersulfone, Millex-GP Syringe Filter Unit (EMD Millipore). Radioactive phosphate (H3^33PO4, Perkin Elmer) is added at about 2.5 μCi per mL of the solution and filtered again.
Three separate studies are performed. In these studies, male Sprague Dawley rats, are randomized into groups with approximately equal mean body weights. Following an overnight fast, all the animals are dosed at 10 mL/kg with either vehicle, varying doses of Compound A (Study 1), varying doses of Example 2 (Study 2) or 1.2 mg/kg Compound A and varying doses of Example 2 (Study 3). 15 min later, radiolabeled phosphate is orally dosed in a 2 mL volume. 15 min later, blood is collected and plasma is prepared. Radioactivity (dpm) in 50 μL plasma is measured by scintillation counting and is used to calculate phosphate absorption. The results are normalized with the vehicle controls representing 100% absorption. The curves are fitted with nonlinear regression with variable slope using GraphPad Prism 6 to calculate the ED50 and Emax given in Table 7. […] No curve fit was performed for Compound A alone in Study 1.

CN1Cc2c(Cl)cc(Cl)cc2[C@H](c2cccc(S(=O)(=O)NCCOCCOCCN/C(=N\C(N)=O)NCCCCN/C(=N/C(N)=O)NCCOCCOCCNS(=O)(=O)c3cccc([C@@H]4CN(C)Cc5c(Cl)cc(Cl)cc54)c3)c2)C1.Cl.Cl [Example 2, [[4-[[N′-Carbamoyl-N-[2-[2-[2-[[3-[(4S)-6,8-dichloro-2-methyl-3,4-dihydro-1H-isoquinolin-4-yl]phenyl]sulfonylamino]ethoxy]ethoxy]ethyl]carbamimidoyl]amino]butylamino]-[2-[2-[2-[[3-[(4S)-6,8-dichloro-2-methyl-3,4-dihydro-1H-isoquinolin-4-yl]phenyl]sulfonylamino]ethoxy]ethoxy]ethylamino]methylene]urea dihydrochloride]
IC50 (SGLT1): 6.6 µM
Inhibition of phosphate absorption (male Sprague Dawley rats [1]): 29%
ED50 (male Sprague Dawley rats [2]; Rattus norvegicus, Example 2 alone): 0.041 mg/kg
Absorption (vs. vehicle control) (male Sprague Dawley rats [2]; Example 2 0.001 mg/kg): 97.16 ± 20.76%
Absorption (vs. vehicle control) (male Sprague Dawley rats [2]; Example 2 0.003 mg/kg): 100.81 ± 20.74%
Absorption (vs. vehicle control) (male Sprague Dawley rats [2]; Example 2 0.01 mg/kg): 75.15 ± 15.52%
Absorption (vs. vehicle control) (male Sprague Dawley rats [2]; Example 2 0.03 mg/kg): 83.17 ± 17.99%
Absorption (vs. vehicle control) (male Sprague Dawley rats [2]; Example 2 0.1 mg/kg): 57.29 ± 11.20%
Absorption (vs. vehicle control) (male Sprague Dawley rats [2]; Example 2 0.3 mg/kg): 71.09 ± 13.98%
Absorption (vs. vehicle control) (male Sprague Dawley rats [2]; Example 2 1 mg/kg): 44.29 ± 9.09%
Absorption (vs. vehicle control) (male Sprague Dawley rats [2]; Example 2 3 mg/kg): 60.04 ± 12.00%
Absorption (vs. vehicle control) (male Sprague Dawley rats [2]; Example 2 10 mg/kg): 63.47 ± 8.39%
% Inhibition at the highest dose (phosphate absorption) (male Sprague Dawley rats [2]; Example 2 highest dose tested (10 mg/kg), dihydrochloride): 37%
